Among the data in patent US11001591B2, “TRAF 6 inhibitors” (HELMHOLTZ ZENTRUM MUENCHEN—DEUTSCHES FORSCHUNGSZENTRUM FÜR …, priority 2016, dated 2021) are IC50 and inhibition values, retold here.

For the test, the target named is T1, TRAF6-UBC13 interaction (Homo sapiens, UniProt Q9Y4K3).
T1 construct: RING-Zincfinger1 (RZ1) domain (residues 50-159) of TRAF6 wildtype; made in house; host or cells: E. coli BL21 codon plus RIPL
T1 sequence (Q9Y4K3 50-159): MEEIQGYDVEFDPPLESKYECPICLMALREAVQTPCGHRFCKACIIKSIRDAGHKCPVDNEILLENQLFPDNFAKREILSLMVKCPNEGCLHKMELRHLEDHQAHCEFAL
Nature of the test: ALPHAScreen TRAF6WTStrepII-Ubc13FH interaction assay. Conditions: inhibition of TRAF6-UBC13 interaction; for inhibition at 100 µM: read-out: IC50 Alphascreen. It is filed as binding. An excerpt: In order to identify small molecules that specifically target the RZ1 domain of TRAF6 and thereby prevent its binding to Ubc13, the ALPHAScreen technology (PerkinElmer) was chosen to detect TRAF6WTStrepII-Ubc13FH interaction in High-Throughput-Screenings as well as Structure Activity Relationship (SAR) analysis.
For performance of an automated ALPHAScreen assay, all following components were pre-diluted in ALPHAScreen buffer (1×PBS, 0.5% BSA, 0.01% Tween-20). First, the TRAF6 protein (end concentration 100 nM, 30 μL volume) was added to 384-well-opti-plates involving the MultiFlo dispensing system (BioTek) followed by transfer of the compounds via the Sciclone G3 transfer station (PerkinElmer). After addition of Ubc13FH (end concentration 75 nM, 10 μL volume) with the MultiFlo system and incubation for one hour at room temperature, both beads (Strep-Tactin Alpha Donor beads and Nickel-Chelate acceptor beads; end concentrations 4 μg each, 10 μL volume each) were mixed and added using the MultiFlo system in subdued light. Read-out of the plates occurred after another hour of incubation at room temperature. Statistical parameters including the coefficient of variation, Z′ factor and signal window were calculated to determine the quality of the HTS campaign. To evaluate the efficacy of the compounds, ALPHAScreen units of compound-treated samples were referred to DMSO control treated samples. Thereby, the TRAF6D57K mutant served as the control for minimum signal and was included on every plate of the screening. Compounds that inhibited TRAF6WTStrepII-Ubc13FH by more than 25% were considered as actives. After elimination of ALPHAScreen frequent hitter compounds and His-tag frequent hitters (Schorpp, K., I. Rothenaigner, E. Salmina, et al., Identification of Small-Molecule Frequent Hitters from AlphaScreen High-Throughput Screens. J Biomol Screen, 2014. 19(5): p. 715-26), 178 compounds were defined as primary hits and were subsequently tested in five-point serial dilution assays (2.5-40 μM) in TRAF6WTStrepII-Ubc13FH ALPHAScreen experiments. Only compounds with dose-dependent effects on TRAF6WTStrepII-Ubc13FH (n=27) were taken for further research. For analog testing, all compounds were analyzed in ten-point titration (0.2-100 μM) in TRAF6WTStrepII-Ubc13FH ALPHAScreen experiments. In parallel, the compounds were tested in the ALPHAScreen TruHits Kit (PerkinElmer) to rule out unspecific interference with the ALPHAScreen technology.
(In general: Alpha assays give light when donor and acceptor beads are brought close together.)

Usually IC50 stands for the concentration needed to halve the response being measured. On to `Cc1nn(-c2ccc3nnc(C)n3n2)c(C)c1CCC(=O)N1CCN(c2ccccc2)CC1` [Compound 1, 3-(3,5-dimethyl-1-(3-methyl-[1,2,4]triazolo[4,3-b]pyridazin-6-yl)-1H-pyrazol-4-yl)-1-(4-phenylpiperazin-1-yl)propan-1-one], for which the IC50 was no more than 3 µM.
Still for that read-out and setting: next, `Cc1nn(-c2ccc3nnc(C)n3n2)c(C)c1CCC(=O)N1CCN(c2ccccn2)CC1` [Compound 2, 3-(3,5-dimethyl-1-(3-methyl-[1,2,4]triazolo[4,3-b]pyridazin-6-yl)-1H-pyrazol-4-yl)-1-(4-(pyridin-2-yl)piperazin-1-yl)propan-1-one]: no more than 3 µM.
In turn, `Cc1nn(-c2ccc3nnc(C)n3n2)c(C)c1CCC(=O)N1CCN(c2ccc(F)cc2)CC1` [Compound 4, 3-(3,5-dimethyl-1-(3-methyl-[1,2,4]triazolo[4,3-b]pyridazin-6-yl)-1H-pyrazol-4-yl)-1-(4-(4-fluorophenyl)piperazin-1-yl)propan-1-one] yielded an IC50 of no more than 3 µM.
For the compound `Cc1nn(-c2ccc3nncn3n2)c(C)c1CCC(=O)N1CCN(c2ccc(F)cc2)CC1` [Compound 5, 3-(1-([1,2,4]triazolo[4,3-b]pyridazin-6-yl)-3,5-dimethyl-1H-pyrazol-4-yl)-1-(4-(4-fluorophenyl)piperazin-1-yl)propan-1-one], the IC50 was no more than 10 µM.
Still for that read-out and setting: for `Cc1nn(-c2ccc3nnc(C)n3n2)c(C)c1CCC(=O)N1CCCC1` [Compound 6, 3-(3,5-dimethyl-1-(3-methyl-[1,2,4]triazolo[4,3-b]pyridazin-6-yl)-1H-pyrazol-4-yl)-1-(pyrrolidin-1-yl)propan-1-one] the value was no more than 10 µM; for `COc1ccc(N2CCN(C(=O)CCc3c(C)nn(-c4ccc5nnc(C)n5n4)c3C)CC2)cc1` [Compound 7, 3-(3,5-dimethyl-1-(3-methyl-[1,2,4]triazolo[4,3-b]pyridazin-6-yl)-1H-pyrazol-4-yl)-1-(4-(4-methoxyphenyl)piperazin-1-yl)propan-1-one], no more than 10 µM.
On the same count and under the same terms, next, `COc1cccc(N2CCN(C(=O)CCc3c(C)nn(-c4ccc5nncn5n4)c3C)CC2)c1` [Compound 8, 3-(1-([1,2,4]triazolo[4,3-b]pyridazin-6-yl)-3,5-dimethyl-1H-pyrazol-4-yl)-1-(4-(3-methoxyphenyl)piperazin-1-yl)propan-1-one]: no more than 10 µM; `COc1ccc(N2CCN(C(=O)CCc3c(C)nn(-c4ccc5nncn5n4)c3C)CC2)cc1` [Compound 9, 3-(1-([1,2,4]triazolo[4,3-b]pyridazin-6-yl)-3,5-dimethyl-1H-pyrazol-4-yl)-1-(4-(4-methoxyphenyl)piperazin-1-yl)propan-1-one]: no more than 10 µM.
On the same count and under the same terms, for `Cc1nn(-c2ccc3nncn3n2)c(C)c1CCC(=O)N1CCN(c2ccccc2)CC1` [Compound 10, 3-(1-([1,2,4]triazolo[4,3-b]pyridazin-6-yl)-3,5-dimethyl-1H-pyrazol-4-yl)-1-(4-phenylpiperazin-1-yl)propan-1-one] the value was no more than 10 µM; for `Cc1nn(-c2ccc3nnc(C)n3n2)c(C)c1CCC(=O)N1CCN(Cc2cccc(Cl)c2)CC1` [Compound 11, 1-(4-(3-chlorobenzyl)piperazin-1-yl)-3-(3,5-dimethyl-1-(3-methyl-[1,2,4]triazolo[4,3-b]pyridazin-6-yl)-1H-pyrazol-4-yl)propan-1-one], no more than 10 µM; for `Cc1nn(-c2ccc3nncn3n2)c(C)c1CCC(=O)N1CCN(c2ccccn2)CC1` [Compound 12, 3-(1-([1,2,4]triazolo[4,3-b]pyridazin-6-yl)-3,5-dimethyl-1H-pyrazol-4-yl)-1-(4-(pyridin-2-yl)piperazin-1-yl)propan-1-one], no more than 10 µM.
With `Cc1ccc(CNC(=O)CCc2c(C)nn(-c3ccc4nnc(C)n4n3)c2C)o1` [Compound 13, 3-(3,5-dimethyl-1-(3-methyl-[1,2,4]triazolo[4,3-b]pyridazin-6-yl)-1H-pyrazol-4-yl)-N-((5-methylfuran-2-yl)methyl)propanamide], the IC50 was no more than 10 µM.
Consider `Cc1nn(-c2ccc3nnc(C)n3n2)c(C)c1CCC(=O)N1CCN(c2ccccc2F)CC1` [Compound 14, 3-(3,5-dimethyl-1-(3-methyl-[1,2,4]triazolo[4,3-b]pyridazin-6-yl)-1H-pyrazol-4-yl)-1-(4-(2-fluorophenyl)piperazin-1-yl)propan-1-one], for which the IC50 is no more than 30 µM.
The same measure, in the same setting: for `Cc1nn(-c2ccc3nnc(C)n3n2)c(C)c1CCC(=O)NCCCc1ccccc1` [Compound 15, 3-(3,5-dimethyl-1-(3-methyl-[1,2,4]triazolo[4,3-b]pyridazin-6-yl)-1H-pyrazol-4-yl)-N-(3-phenylpropyl)propanamide] the value was no more than 30 µM; for `Cc1nn(-c2ccc3nncn3n2)c(C)c1CCC(=O)N1CCC(Cc2ccccc2)CC1` [Compound 16, 3-(1-([1,2,4]triazolo[4,3-b]pyridazin-6-yl)-3,5-dimethyl-1H-pyrazol-4-yl)-1-(4-benzylpiperidin-1-yl)propan-1-one], no more than 30 µM.
On the same count and under the same terms, for `Cc1ccc(C)c(N2CCN(C(=O)CCc3c(C)nn(-c4ccc5nnc(C)n5n4)c3C)CC2)c1` [Compound 17, 3-(3,5-dimethyl-1-(3-methyl-[1,2,4]triazolo[4,3-b]pyridazin-6-yl)-1H-pyrazol-4-yl)-1-(4-(2,5-dimethylphenyl)piperazin-1-yl)propan-1-one] the value was no more than 30 µM; for `Cc1nn(-c2ccc3nnc(C)n3n2)c(C)c1CCC(=O)NCc1ccc(Cl)cc1` [Compound 18, N-(4-chlorobenzyl)-3-(3,5-dimethyl-1-(3-methyl-[1,2,4]triazolo[4,3-b]pyridazin-6-yl)-1H-pyrazol-4-yl)propanamide], no more than 30 µM; for `Cc1nn(-c2ccc3nnc(C)n3n2)c(C)c1CCC(=O)NCc1cccs1` [Compound 19, 3-(3,5-dimethyl-1-(3-methyl-[1,2,4]triazolo[4,3-b]pyridazin-6-yl)-1H-pyrazol-4-yl)-N-(thiophen-2-ylmethyl)propanamide], no more than 30 µM.
On the same count and under the same terms, for `Cc1nn(-c2ccc3nnc(C)n3n2)c(C)c1CCC(=O)NCCc1c[nH]c2ccccc12` [Compound 20, N-(2-(1H-indol-3-yl)ethyl)-3-(3,5-dimethyl-1-(3-methyl-[1,2,4]triazolo[4,3-b]pyridazin-6-yl)-1H-pyrazol-4-yl)propanamide] the value was no more than 30 µM; for `Cc1nn(-c2ccc3nnc(C)n3n2)c(C)c1CCC(=O)NCc1ccccc1` [Compound 21, N-benzyl-3-(3,5-dimethyl-1-(3-methyl-[1,2,4]triazolo[4,3-b]pyridazin-6-yl)-1H-pyrazol-4-yl)propanamide], no more than 30 µM.
For `Cc1nn(-c2ccc3nncn3n2)c(C)c1CCC(=O)NCCCc1ccccc1` [Compound 22, 3-(1-([1,2,4]triazolo[4,3-b]pyridazin-6-yl)-3,5-dimethyl-1H-pyrazol-4-yl)-N-(3-phenylpropyl)propanamide], the inhibition at 100 µM is no less than 30%.
On the same count and under the same terms, for `CCN1CCN(C(=O)CCc2c(C)nn(-c3ccc4nnc(C)n4n3)c2C)CC1` [Compound 23, 3-(3,5-dimethyl-1-(3-methyl-[1,2,4]triazolo[4,3-b]pyridazin-6-yl)-1H-pyrazol-4-yl)-1-(4-ethylpiperazin-1-yl)propan-1-one] the value was no less than 30%.
The same measure, in the same setting: for `Cc1nn(-c2ccc3nncn3n2)c(C)c1CCC(=O)N1CCC(C)CC1` [Compound 24, 3-(1-([1,2,4]triazolo[4,3-b]pyridazin-6-yl)-3,5-dimethyl-1H-pyrazol-4-yl)-1-(4-methylpiperidin-1-yl)propan-1-one] the value was no less than 30%; for `Cc1nn(-c2ccc3nncn3n2)c(C)c1CCC(=O)N1CCCC1` [Compound 25, 3-(1-([1,2,4]triazolo[4,3-b]pyridazin-6-yl)-3,5-dimethyl-1H-pyrazol-4-yl)-1-(pyrrolidin-1-yl)propan-1-one], no less than 30%; for `Cc1nn(-c2ccc3nnc(C)n3n2)c(C)c1CCC(=O)NCc1ccccc1F` [Compound 26, 3-(3,5-dimethyl-1-(3-methyl-[1,2,4]triazolo[4,3-b]pyridazin-6-yl)-1H-pyrazol-4-yl)-N-(2-fluorobenzyl)propanamide], no less than 30%.
